Experiment [1] concerns the target T1, γ-secretase (Homo sapiens, UniProt P49768).
T1 construct: endogenous in cells; host or cells: HEK293 cells stably expressing APP751
The experiment is described as follows: Inhibitory effect on γ-secretase: ELISA of human β-amyloid in the cell medium of APP751-expressing HEK293 cells. The experiment is classed as cell-based. To be noted: for concentrations at which the substances have γ-secretase activity / decrease of β-amyloid quantity in the cell medium: tested at 0,02, 0,2 and 2 µM, Figure 2; for γ-Secretase effect: concentration 2 µM, compared with DAPT; for γ-Secretase effect / quantity of amyloid β: figure 3; for quantity of amyloid β: concentration 0,02 µM. The protocol:
To a solution of norgalanthamine hydrochloride (0.42 g 1.3560 mmol) in DMF under cooling Et3N (0.19 ml 1.3520 mmol) and N-(3,4-dichlorophenyl)-alanyl-valine (0.50 g 1.5009 mmol) and N-cyclohexyl-N-[β-(N-methylformolino)-ethyl-] carbodiimide (0.64 g 1.5109 mmol) was added. The reaction mixture was stirred for 24 hours at room temperature and the end of reaction was monitored in a system of n-BuOH:AcOH:H2O= 3:1:1 To the reaction mixture 5 % NaHCO3 was add, followed by precipitate formation. The precipitate was washed by suspending in 5 % NaHCO3 and H2O. […] 137-141 °C, yield 37 %, chromatographically pure in a system of CHCl3:MeOH=9:1 and n-BuOH:AcOH:H2O= 3:1:1. IR [cm^-1]: 3384, 3062, 3028, 2930, 1640, 1599, 1280, 1240, 1059, 753, 701. HPLC: Rt= 2.58 and 2.76 min for S and R isomers. 1H NMR (CDCl3, ppm ) δ: 7.10-7.30 (2H, NH), 7.0-6.20 (10H, 5H Ph + H9', H10'+ 3H PhCl), 6.0 (m, 2H, H4', H5'), 4.7-4.4 (m, 4H, CH2NCH2), 4.5 (m, 1H, H1'), 4.14 (m, 1H, H3'), 3.85 (s, 3H, O-CH3), 3.90 (m, 1H, CHCH2Ph), 3.75 (q, 1H, CHCH3), 3.20 (m, 1H, CHCH2Ph), 2.70 (d, J=15.9 Hz, 1H, H2a'), 2.02 (d, J=15.9 Hz, 1H, H2b'), 1.90 (m, CH2), 1.30 (d, , 3H, CHCH3). Elemental analysis - nitrogen determination: C34H36N3Cl2O5, M.M= 636.54 theoretical 6.60 % N, calculated 6.62 % N. Mass spectrometry: C34H36N3Cl2O5, M.M= 636.20 found [M+H]^+=636.55. […] 133-138 °C, yield 35 %, chromatographically pure in a system of CHCl3:MeOH=9:1 and n-BuOH:AcOH:H2O= 3:1:1. IR [cm^-1]: 3338, 2963, 2931, 2874, 1656, 1630, 1599, 1382, 1373, 1279, 1214, 1059. HPLC: Rt= 2.35 and 2.53 min for S and R isomers. 1H NMR (CDCl3, ppm) δ: 7.10-7.30 (2H, NH), 7.0-6.20 (5H, H9', H10', 3H PhCl), 5.90 (m, 2H, H4', H5'), 4.7-4.4 (m, 4H, CH2NCH2), 4.5 (m, 1H, H1'), 4.15 (m, 1H, H3'), 3.86 (s, 3H, O-CH3), 3.85 (m, 1H, H2), 3.75 (q, 1H, CHCH3), 3.20 (m, 1H), 2.70 (d, J=15.9 Hz, 1H, H2a'), 2.40 (m, 1H, CH(CH3)2), 2.02 (d, J=15.9 Hz, 1H, H2b'), 1.90 (m, CH2), 1.30 (d, 3H, CHCH3), 0.80 (d, 6H, 2 x CH3). Elemental analysis - nitrogen determination: C29H33N3Cl2O5, M.M= 588.41 calculated 7.14 % N, found 6.98 % N. Mass spectrometry: C29H33N3Cl2O5, M.M= 587.20 found [M+H]^+=588.45. Example 14 The study of inhibitory effect on γ-secretase of the compounds under the inventions took place on expressing APP751 HEK293 cells using the following methods: (1) cell cultivation of expressing APP751 HEK293 cells, and (2) ELISA (solid-phase sandwich enzyme-linked immunosorbent assay) of human β-amyloid protein. HEK293 cells were cultivated in Dulbecco's modified Eaglr's medium (Applichem, Germany) with added 10% fetal calf serum (Biowhittaker, USA) and 200 U/ml Penicillin and […] Streptomycin (Applichem, Germany) at 37°C and 5% CO2. ELISA kits of human β-amyloid are intended for in vitro quantitative determination of a native or recombinant β-amyloid in serum, supernatant of cell cultures or other biological samples. In short, a monoclonal antibody specific for the amino end of β-amyloid was immobilized for a 96-pit plate. β-amyloid antigen from the standards or from the samples was connected with this first antibody. Then a second antibody was placed for detection of the specific β-amyloid 1 - 42. An anti-rabbit antibody IgG-HRP completed the sandwich. The reaction was visualized by means of 3,3",5,5"-tetramethylbenzidine (TMB) substrate, following by a stop solution. Yellow colour intensity was in direct proportion to the concentration of β-amyloid in the original sample. The sensitivity of these ELISA was < 10 pg/ml β-amyloid. ELISA method was used to study the inhibitory effect on γ-secretase of the compounds obtained according to the invention on expressing APP751 HEK293 cells. The following abbreviations were used: • 1. 6-O-N-[N- (3,4-dichlorophenyl)-D,L-alanyl]-glycil-galanthamine - AG-GAL • 2. […] 6-O-N-[N- (3,4-dichlorophenyl)-D,L-alanyl]-L-leucil-glycil-galanthamine - ALG-GAL • 4. 6-O-N-[N- (3,4-dichlorophenyl)-D,L-alanyl]-L-valyl-glycil-galanthamine - AVG-GAL • 5. N-(3,4-dichlorophenyl)-D,L-alanyl-L-phenylalanine - AF • 6. […]
Background: An ELISA detects its analyte on a solid surface through an enzyme-linked reagent.

In experiment [2] the target is T2, acetylcholinesterase (Homo sapiens, UniProt P22303).
T2 construct: purchased Sigma
The experiment is described as follows: biochemical. As for the experimental part:
Acetylcholine iodide was used as substrate. Acetylcholinesterase is a commercial product (Sigma). […] After stirring, 1 EU acetylcholinesterase was added. […] Each test was repeated 3 times. The test substances was dissolved in 50% ethyl alcohol.

For experiment [3], the target named is T3, butyrylcholinesterase (Homo sapiens, UniProt P06276).
T3 construct: purchased Sigma
The experiment is described as follows: biochemical.
Method: In studying the inhibitory effect of the compounds according to the invention, a modified Elman's method was used. Butyrylcholine iodide was used as substrate. Butyrylcholinesterase is a commercial product (Sigma). Enzyme activity determination was performed in 0,1 M sodium phosphate buffer pH 8,0 at 25 °C. To 1 ml of the buffer, 90 mcl (7,5 MM) butyrylcholine iodide and 45 mcl (10 MM) 5,5'-ditiobis-2-nitrobenzoic acid (DTNB) were added. After stirring, 1 EU butyrylcholinesterase was added. The enzyme reaction was monitored according to the change of absorption at 412 nm in a period of 2 to10 min. The speed of the enzyme reaction was calculated in M/l.sec, using an absorption coefficient of 14,15 .10^3 1/M.cm (Eyer). Each test was repeated 3 times. The substances under study were dissolved in 50% ethyl alcohol. To trace the inhibiting effect, the compounds under study were added in different concentrations to 1,5 ml of phosphate buffer and 1 EU enzyme. They were incubated for 30 min at 25 °C, then butyrylcholine iodide and DTNB were added and the course of the enzyme reaction was monitored according to the description above. […] After a preliminary screening, such concentrations of the test substances were selected that have an inhibiting effect between 20 and 80%. To determine the inhibition constant (Ki), minimum 3 different concentrations of the test compounds under study were used. The inhibition curves for each selected concentration of the inhibitor were made using the method of double reciprocal values (Lineweaver, Burk), substrate concentration being within 90 - 3300 .10^-6 M/l. IC50 values were determined using the log-probit method. The calculations were made using the matlab6 program. IC50 values were made on the basis of experimental data obtained for different concentrations of the compounds manifesting inhibitory activity.

Setting [4] is: 0,1 M sodium phosphate buffer pH 8,0, 25 °C, 30 min preincubation, acetylcholine iodide substrate, read-out: IC50.
[5] abbreviates: 0,1 M sodium phosphate buffer pH 8,0, 25 °C, 30 min preincubation, butyrylcholine iodide substrate, read-out: IC50.

Molecules are shown by their SMILES. Read-outs that look alike come from different tables or passages of the source.

T3 sequence (P06276 29-602): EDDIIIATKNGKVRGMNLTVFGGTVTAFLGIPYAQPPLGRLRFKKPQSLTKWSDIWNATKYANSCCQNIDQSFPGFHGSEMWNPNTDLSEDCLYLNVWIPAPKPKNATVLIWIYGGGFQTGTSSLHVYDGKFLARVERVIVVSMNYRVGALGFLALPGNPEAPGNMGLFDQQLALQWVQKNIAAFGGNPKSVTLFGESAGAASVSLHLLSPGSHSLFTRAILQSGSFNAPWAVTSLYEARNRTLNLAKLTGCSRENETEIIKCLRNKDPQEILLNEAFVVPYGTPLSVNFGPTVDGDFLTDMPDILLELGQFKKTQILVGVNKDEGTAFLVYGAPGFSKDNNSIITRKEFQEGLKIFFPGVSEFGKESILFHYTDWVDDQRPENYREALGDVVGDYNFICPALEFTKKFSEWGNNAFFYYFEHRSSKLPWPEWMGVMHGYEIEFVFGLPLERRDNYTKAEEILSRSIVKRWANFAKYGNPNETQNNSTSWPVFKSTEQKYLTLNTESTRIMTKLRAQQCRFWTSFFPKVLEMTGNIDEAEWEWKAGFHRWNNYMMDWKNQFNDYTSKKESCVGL
T2 sequence (P22303 32-614, species assumed): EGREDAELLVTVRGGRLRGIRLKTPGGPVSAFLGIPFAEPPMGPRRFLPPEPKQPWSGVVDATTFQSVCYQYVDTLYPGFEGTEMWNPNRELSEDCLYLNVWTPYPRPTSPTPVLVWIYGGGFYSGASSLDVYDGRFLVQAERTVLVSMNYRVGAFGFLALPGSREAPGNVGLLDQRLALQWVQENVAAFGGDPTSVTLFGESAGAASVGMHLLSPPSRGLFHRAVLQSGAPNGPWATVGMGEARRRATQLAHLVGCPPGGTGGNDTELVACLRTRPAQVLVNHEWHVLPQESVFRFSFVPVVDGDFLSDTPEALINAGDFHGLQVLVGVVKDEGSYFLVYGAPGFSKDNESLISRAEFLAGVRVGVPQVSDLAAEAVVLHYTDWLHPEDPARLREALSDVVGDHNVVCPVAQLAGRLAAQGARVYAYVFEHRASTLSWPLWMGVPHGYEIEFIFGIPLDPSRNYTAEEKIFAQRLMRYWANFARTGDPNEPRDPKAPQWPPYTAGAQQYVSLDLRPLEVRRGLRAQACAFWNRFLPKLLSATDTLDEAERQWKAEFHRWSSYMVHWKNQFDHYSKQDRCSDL

As to `C[C@H](NC(=O)Cc1cc(F)cc(F)c1)C(=O)N[C@H](C(=O)OC(C)(C)C)c1ccccc1` [DAPT, N-[N-(3,5-difluorophenylacetyl)-L-alanyl]-S-phenylglycin tertiary butyl ester, reference compound], the “concentrations at which the quantity of β amyloid is decreased by inhibiting γ-secretase activity” value in experiment [1] (6 hours incubation, serum-free medium, figure 1) is recorded as “higher than 160 nM”.

Take `COc1ccc2c3c1OC1CC(OC(=O)CNC(=O)C(NC(=O)C(C)Nc4ccc(Cl)c(Cl)c4)C(C)C)C=CC31CCN(C)C2` [Compound 4, 6-O-N-[N-(3,4-dichlorophenyl)-D,L-alanyl]-L-valyl-glycil-galanthamine]: the “concentrations at which the substances have γ-secretase activity” value in experiment [1] (6 hours incubation) is “higher than 0,02 µM”. Further, the “decrease of β-amyloid quantity in the cell medium” value in experiment [1] (6 hours incubation) was “significant decrease”. Also, the results for the IC50 in experiment [2] (setting [4]) and in experiment [3] (setting [5]) were 8.33 µM and 0.335 µM, respectively.

As for `CC(C)C[C@H](NC(=O)C(C)Nc1ccc(Cl)c(Cl)c1)C(=O)O` (mixture of isomers) [AL, N-(3,4-dichlorophenyl)-D,L-alanyl-L-leucine], in experiment [1] (6 hours incubation), the “concentrations at which the substances have γ-secretase activity” value is reported as “higher than 0,02 µM” and the “decrease of β-amyloid quantity in the cell medium” value was “significant decrease”.

Consider `CC(Nc1ccc(Cl)c(Cl)c1)C(=O)N[C@@H](Cc1ccccc1)C(=O)O` (mixture of isomers) [AF, N-(3,4-dichlorophenyl)-D,L-alanyl-L-phenylalanine], for which the γ-Secretase effect entry in experiment [1] is given as “comparable with the effect of DAPT”.

As to `COc1ccc2c3c1OC1CC(O)C=CC31CCN(C(=O)C(NC(=O)C(C)Nc1ccc(Cl)c(Cl)c1)C(C)C)C2` [Compound 6, 11-N-demethyl-11-N-N-[N-(3,4-dichlorophenyl)-D,L-alanyl]-L-valyl-galanthamine], the figures for the IC50 in experiment [2] (setting [4]) and in experiment [3] (setting [5]) were 31.2 µM and 0.603 µM, respectively.

Consider `COc1ccc2c3c1OC1CC(OC(=O)CNC(=O)C(Cc4ccccc4)NC(=O)C(C)Nc4ccc(Cl)c(Cl)c4)C=CC31CCN(C)C2` [Compound 2, 6-O-N-[N-(3,4-dichlorophenyl)-D,L-alanyl]-L-phenylalanyl-glycil galanthamine], for which the figures for the IC50 in experiment [2] (setting [4]) and in experiment [3] (setting [5]) were 3.76 µM and 10 µM, respectively.

In the case of `COc1ccc2c3c1O[C@H]1C[C@@H](OC(=O)CNC(=O)C(C)Nc4ccc(Cl)c(Cl)c4)C=C[C@@]31CCN(C)C2` (stereo partly drawn) [Compound 1, 6-O-N-[N-(3,4-dichlorophenyl)-D,L-alanyl]-glycil-galanthamine], in experiment [1], the “quantity of amyloid β” value is listed as “decreased significantly” and the γ-Secretase effect entry is “no inhibitory effect”. Besides, the IC50 (in general, the point on the concentration scale where inhibition reaches its midpoint) in experiment [2] was found to be 3.98 µM. The compound further yielded an IC50 in experiment [3] of 23.7 µM.

Turning to `COc1ccc2c3c1OC1CC(OC(=O)CNC(=O)C(CC(C)C)NC(=O)C(C)Nc4ccc(Cl)c(Cl)c4)C=CC31CCN(C)C2` [Compound 3, 6-O-N-[N-(3,4-dichlorophenyl)-D,L-alanyl]-L-leucil-glycil-galanthamine], in experiment [1], the “quantity of amyloid β” value is “decreased significantly” and the γ-Secretase effect entry is recorded as “comparable with the effect of DAPT”. The IC50 in experiment [2] (setting [4]) was 3.35 µM. Further, the IC50 in experiment [3] (setting [5]) was found to be 0.612 µM.

Regarding `COc1ccc2c3c1O[C@H]1C[C@@H](O)C=C[C@@]31CCN(C(=O)[C@H](Cc1ccccc1)NC(=O)C(C)Nc1ccc(Cl)c(Cl)c1)C2` (stereo partly drawn) [Compound 5, 11-N-demethyl-11-N-N-[N-(3,4-dichlorophenyl)-D,L-alanyl]-L-phenylalanyl-galanthamine], the IC50 in experiment [2] amounted to 12.5 µM; in experiment [3], 0.447 µM.
